Experiments:
[1] = system: fibroblast cells (SA-β-gal); experiment: Senescence-associated β-galactosidase activity in fibroblasts; type: cell-based, human
Method: Fibroblast cells were incubated in 6-well plate at a density of 1×10^4 cells/well. Then the culture supernatants were removed and the cells were treated 72 h with only camphor (260 μM) or H2O2 600 μM and 800 μM or co-treated camphor and H2O2 in fresh media; ethanol containing media and media only were used as negative controls. In some experiments, H2O2 was pretreated on fibroblast cells 72 h and replaced with or without camphor treatment (260 μM) 48 h. After treatment, cells were washed twice with PBS and fixed 10 minutes in 4% formaldehyde. Then, this was followed by washing 3 times with wash solution (100 mM Na2HPO4 set to pH 6 with 100 mM Citric Acid). Cells was incubated overnight at 37° C. in freshly made staining solution (5 mM K3Fe(CN)6, 5 mM K4Fe(CN)6, 2 mM MgCl2, 150 mM NaCl, 40 mM Na2HPO4, 1 mg/mL bromo-chloro-indolyl-galactopyranoside (X-Gal), set to pH 6 with 100 mM citric acid). Next day, cells was washed the staining solution with PBS and taken picture by microscope and β-galactosidase-positive cell number ratio was calculated.

[2] = system: fibroblasts; experiment: ROS production by DCFH-DA flow cytometry in fibroblasts; type: cell-based, human; settings: for increase of ROS production compared to non-treated cells: fibroblasts, 24 hours after treatment, FIG. 4A
Method: To analyze the reactive oxygen species (ROS), the cells were seeded in 60 mm culture dishes at a density of 2×10^4 cells/mL, and then treated with 10% chamomile hydrosol for 0, 6, 12, and 24 hours. The cells were stained with 2′-7′-dichlorodihydrofluorescein diacetate (DCFH-DA) for 15 minutes, collected in a 15 mL tube, and then washed with PBS. The cells were re-suspended in 500 μl of PBS, and measured for a level of ROS. For the cell cycle analysis, the treated cells were harvested and fixed overnight in 70% ethanol at 4° C. After 24 hours, the cells were rehydrated in 2 mM EDTA-BPS with RNase A (25 ng/ml), and stained with PI (40 μg/ml). All the analyses were performed using a FACS Caliber flow cytometer (BD Biosciences), and each sample were analyzed by counting 10,000 cells.

[3] = system: Primary dermal fibroblast cells; experiment: MTT cell viability of fibroblasts; type: cell-based, human
Method: Fresh human foreskin specimens were obtained from 8 donors aged from 6 to 12 years, who received a routine circumcision procedure of Jeju National University Hospital, Korea. After being digested with 0.1% […] (Worthington Biochemical Corporation, Lakewood, N.J.) at 4° C. overnight, the epidermal layers were removed, and the remaining dermal parts were further digested with 0.1% collagenase I (Worthington) at 37° C. for another 4 h. The digested cells were then passed through a […] cell strainer (BD Biosciences, Mississauga, ON, Canada), centrifuged, and resuspended in high-glucose DMEM (Gibco, Invitrogen, Carlsbad, Calif.), supplemented with 10% FBS (Gibco, Invitrogen, Carlsbad, Calif.), 100 U/ml penicillin, and 100 μg/ml streptomycin (all from PAA Laboratories, Linz, Austria). Cells were seeded on tissue culture plates at 1×10^3 cells/cm2, and maintained at 37° C. with 5% CO2. After 24 h, the plates were washed with PBS to remove residual non-adherent cells. The resulting adherent cells were grown to confluence within 7 days. Primary dermal fibroblast (2×10^4 cells/ml) cells were plated in 96-well plates in 200 μl of medium containing 10% FBS. After 24 h, the cells were treated with different concentrations of chamomile hydrosol or camphor. […] Cell viability was determined from the absorbance at 570 nm, measured using a Sunrise microplate reader (Tecan, Salzburg, Austria). […]

[4] = system: PI3K/AKT and MAPK signaling cascades; experiment: Western blot of PI3K/AKT/ERK/4E-BP1 phosphorylation in fibroblasts; type: cell-based, human
Method: (§1) After 0, 6, 12, 24 h treatment, cells were collected and lysed in lysis buffer (100 mM Tris-Hcl [pH 8], 250 mM NaCl, 0.5% Nonidet P-40, and 1× protease inhibitor cocktail) and sonicated few times then kept on ice for 30 min. The cell lysates were centrifuged at 13,000 rpm for 30 min at 4° C. The supernatant were collected and determined the concentration by BCA™ Protein assay (Pierce, Rockford, Ill.). For detecting MMP 1 and collagen I, and collagen III, we collected the media and centrifuging 400×g for 1 h at 4° C. by using Amicon Ultra 10K and determined the concentration by Bradford assay. Aliquots of the lysated were separated by 10-15% SDS-PAGE, and transferred to PVDF membranes using a glycine transfer buffer (192 mM glycine, 25 mM Tris-HCl [pH 8.8], and 20% [v/v] methanol). After blocking with Skim milk 5% overnight at 4° C., the membrane were incubated with primary antibodies for 1 h RT or overnight at 4° C. and then for 1 h with secondary antibodies. Primary antibodies were diluted at ratio 1:1000 whereas the anti-β-actin primary and secondary antibodies (horseradish peroxidase-conjugated goat anti-mouse IgG) (Vector Laboratories, Burlingame, Calif.) were diluted at ratio 1:10,000. Protein bands were detected using the WEST-ZOL® plus Western Blot Detection System (iNtRON, Gyeonggi-do, Korea).

[5] = biological target: T1, porcine pancreatic elastase (PPE (Type IV)) (Sus scrofa, UniProt P00772); experiment: Elastase assay; type: biochemical; settings: camphor 0-3200 μM, n-Suc-(Ala)3-nitroanilide substrate, FIG. 5B
T1 construct: purchased Sigma
Method: The inhibition of different concentrations of camphor on porcine pancreatic elastase (PPE (Type IV), Sigma) activity was examined using n-Suc-(Ala)3-nitroanilide as the substrate, and the release of nitroaniline was measured at 410 nm. The reaction was carried out in a 200 mM Tris-HCl buffer (pH 8.0) containing 0.8 mM N-Suc-(Ala)3-nitroanilide and 5 μg/mL elastase. Different concentrations of camphor (0-3200 μM) were added to the reaction mixture to reach a final volume of 320 μl, and elastase inhibition was assessed in 96 well-plate reader at 25° C. The reaction mixture was pre-incubated for 10 minutes before addition of the substrate. The change in absorbance was measured at 410 nm using a 96-well reader. The percentage of elastase activities was calculated by the following equation: Enzyme activity (%)=100−[(B−A)/A]×100]
wherein A represents an absorbance at 410 nm without camphor, and B represents an absorbance at 410 nm with camphor.

[6] = system: Fibroblast cells; experiment: Total collagen assay (Sircol); type: cell-based, human; settings: cells treated with camphor vs non-treated control, FIG. 5C
Method: Total collagen was quantified in culture media using the Sircol Soluble Collagen Assay kit (Biocolor, Newtownabbey, Northern Ireland) by quantitative dye-binding method, according to the manufacturer's instruction. Fibroblast cells were seeded in 6-well culture plates at density 2×10^5 cells/well with 2 ml/well media with or without camphor (260 μM) and incubated for different time points (6 h, 12 h, 24 h). After treatment, 200 μl sample medium of each group was transferred to a 1.5 ml centrifuge tube and 1 ml Sircol dye reagent was added into each tube. The mixed contents were incubated at room temperature for 30 min. Then the tubes were centrifuged at 10000 g for 10 minutes. The supernatants were drained off and discarded. The remaining pellets were mixed with 1 ml Alkali reagent and gently mixed until the pellets dissolved completely. The solutions were transferred to a 96-well plate and read absorbance at 540 nm. A standard curve was made simultaneously by standard collagen stock solution (0.5 mg/m1).

[7] = system: collagen types I, III and IV and collagenase MMP1; experiment: Western blot of collagen types and MMP1; type: cell-based, human; settings: camphor treatment
Method: as §1

T1 sequence (P00772 27-266): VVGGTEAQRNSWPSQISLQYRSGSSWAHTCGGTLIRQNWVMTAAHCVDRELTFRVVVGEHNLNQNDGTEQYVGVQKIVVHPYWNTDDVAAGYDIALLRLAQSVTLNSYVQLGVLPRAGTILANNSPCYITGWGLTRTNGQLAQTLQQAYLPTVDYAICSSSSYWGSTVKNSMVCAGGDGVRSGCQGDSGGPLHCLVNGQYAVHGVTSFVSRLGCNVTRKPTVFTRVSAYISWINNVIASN

SMILES	SA-β-gal-positive cells ([1]; H2O2 alone vs control, FIG. 5A)	increase of ROS production compared to non-treated cells [2]	cell viabilities enhanced by camphor when ROS scavenged by NAC ([3]; NAC pre-treatment, then camphor, FIG. 4C)	camphor-induced ROS production after NAC pre-treatment ([2]; fibroblasts pre-treated with NAC, then camphor 24 hours, FIG. 4B)	phosphorylation of PI3K, AKT, 4EBP1, and ERK increased by camphor, after NAC pre-treatment ([4]; NAC pre-treatment plus camphor, FIG. 4D)	fibroblast viability ([3]; camphor from 32.25 μM to 260 μM, FIG. 3A)	reversal of cellular senescence ([1]; cells pre-treated with H2O2 at 800 μM, then camphor)	SA-β-gal-positive cells ([1]; co-treatment of camphor with 600 and 800 μM H2O2, 72 h)	number of senescent cells ([1]; pre-treated with 600 μM H2O2 for 3 days, then camphor for 2 days)	elastase activity inhibition [5]	phosphorylated forms of 4E-BP1 ([4]; fibroblasts treated with camphor, FIG. 3B)	phosphorylation of PI3K, AKT, and ERK ([4]; fibroblasts treated with camphor, time-dependent, FIG. 3B)	total volume of collagen [6]	expression of MMP1 [7]	volume of collagen types III and IV ([7]; FIG. 5D)
OO [H2O2, reference compound]	dramatically induced SA-β-gal-positive cells	53%													
CC(=O)N[C@@H](CS)C(=O)O [NAC, N-acetyl-L-cysteine, reference compound]			decreased	decreased the induced ROS production	reduced the phosphorylation										
CC1(C)C2CC[C@@]1(C)C(=O)C2 [camphor, (1R)-1,7,7-Trimethylbicyclo[2.2.1]heptan-2-one]		approximately 13%				increased the fibroblast viability	did not significantly reverse the cellular senescence	reduced the SA-β-gal-positive cells	significantly decreased	inhibited the elastase activity in a concentration-dependent manner	observed	increased the phosphorylation	increased	no change	increased

— patent US9623062B2, “Anti-ageing activity of camphor in fibroblast cell line” (Jeju National University Industryacademic Cooperation …, priority 2014, dated 2017)
